According to patent US20250009716A1, “NOVEL INHIBITORS OF CLAUDIN-1 FOR THERAPEUTIC INTERVENTIONS” (BOARD OF REGENTS OF THE UNIVERSITY OF NEBRASKA, priority 2021, published 2025):

What was measured:
Assay type in all cases: cell-based
[1] = test system: SW480claudin-1 cells; assay: Resistance to anoikis in claudin-1 overexpressing cells; details: 72 h treatment
Excerpt: The crystal structure of claudin-1 is unknown. Therefore, an in-silico protein folding program, YASARA, was used to identify an effective claudin-1 inhibitor. The resultant 3D-structure was then modeled using Molegro Virtual Docker (MVD) software program. These in-silico analyses identified putative cavities in the claudin-1 protein that can be targeted by small molecule inhibitors. Next, a 100K library of small molecules was screened in silico using the MVD. The top 10 inhibitors that bound to the Site #3 (targeting near c-terminal domain; the most accessible pocket; FIG. 2A) with the best binding energies were selected as hits and used for further testing. Screening of these inhibitors named Inihibitor-1 (1-1) to Inhibitor-10 (I-10) was done using SW480claudin-1, SW620 and control cells. Claudin-1 deficient HCT116 cells (WT-APC) or SW620shRNAcld-1 were used as negative controls. Resistance to anoikis and cell invasion was used as biological end-points in testing these inhibitors. […] 16 has the following structure:
(§1) To this end, a library of molecules was synthesized in order to develop an initial SAR evaluation. The first compounds tested eliminated the acylated (thio) urea as well as the napthyl group and evaluated just the urea/phenyl compounds (Compounds 1-6). The methoxy group of the naphthalene ring system was needed when the benzimidazole group was present (16 vs. Compound 8). […] The result of metabolic stability was expressed as the percentage of drug remaining at each time. […] To further determine the effect of PDS-0330 on p-Src expression and association, cells were treated with Compound 1, 16 and PDS-0330. Expression and association with p-Src was unaffected with Compound 1 (negative control). The specificity of PDS-0330 for CLDN1 was further confirmed by treating SW480^CLDN1, HCT116^CLDN2 (overexpressing another tight junction protein) or normal IEC-6 cells with PDS-0330 (FIG. 12).

[2] = target: T1, claudin-1/Src complex in SW480claudin-1 cells (Homo sapiens, UniProt O95832); assay: Claudin-1/Src association (proximity ligation assay, Co-IP); details: PLA, Co-IP or immuno-precipitation
T1 construct: claudin-1 was expressed in a non-metastatic CRC cell line, SW480 cells; expressed in transfected cells; host or cells: SW480 colorectal cancer cells expressing claudin-1 (SW480claudin-1)
T1 sequence (O95832 1-211): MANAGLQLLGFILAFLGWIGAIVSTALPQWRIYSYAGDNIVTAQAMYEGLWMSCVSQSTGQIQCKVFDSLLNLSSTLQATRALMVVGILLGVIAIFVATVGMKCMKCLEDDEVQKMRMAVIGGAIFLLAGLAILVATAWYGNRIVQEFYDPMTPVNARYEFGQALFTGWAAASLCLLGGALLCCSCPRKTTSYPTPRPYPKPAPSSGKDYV
Excerpt: The CSC cells contribute to the generation of metastasis (16-19), and key CSC characteristics are highly relevant to metastasis, including invasive motility, and, resistance to apoptosis (20,21). […] Considering that chemoresistance is central to the CRC progression and metastasis, we further tested if adjuvant use of 16 with 5FU can have significant bearing upon these traits. Colon cancer cells were subjected to exogenous administration of 16 alone, or in combination with the 5-FU, the conventional anti-CRC drug. […] To further determine the mechanistic details the effect of 16 on association of claudin-1 and Src, SW480claudin-1 cells were treated with 16 or the vehicle and resultant cell lysate was subjected to Proximity ligation assay (PLA) or Co—IP.

[3] = test system: p-Src and c-PARP in SW480claudin-1 overexpressing cells; assay: Expression of p-Src, Src and c-PARP
Excerpt: as §1
Furthermore, DLD-1 chemoresistant cells were treated with PDS-0330 and I-6. […] Based on the in vitro activity and metabolic stability, PDS-0330, and any potential new analogs will be evaluated in animal models to determine the pharmacokinetic properties and biodistribution as described in preliminary data.

Question: With `COc1ccccc1NC(=O)Nc1ccc(-c2nc3ccccc3[nH]2)cc1` [Compound 1] as the compound, how does the “effect on resistance to anoikis” value [1] read?
Answer: not much change

Question: And the “claudin-1/Src (p-Src) association” value [2]?
Answer: unaffected

Question: And the p-Src expression [3]?
Answer: unaffected
